Data: patent publication US20140065615A1, “The KRAS Variant and Tumor Biology” (YALE UNIVERSITY, priority 2011, published 2014)

How the values were obtained:
Format in all cases: cell-based
[1] = system: BG1 (KRAS variant/BRCA wild-type cell line); assay: CellTiter-Blue chemosensitivity / cell viability assay, BG1; conditions: KRAS-variant line BG1 vs non-variant CAOV3
Procedure: (§1) The activity of drugs alone or in combination was determined by a high-through-put CellTiter-Blue cell viability assay. For these assays, 1.2×10^3 cells were plated in each well of 384-well plates using a Precision XS liquid handling station (Bio-Tek Instruments Inc., Winooski, Vt., USA) and allowed to attach overnight with incubation at 37° C., 5% CO2. Using the liquid handling station, all drugs were serially diluted 2:3 or 1:2 in media, and 5 μl of these dilutions were added to appropriate wells at indicated times. Four replicate wells were used for each drug concentration and an additional four control wells received a diluent control without drug. At the end of the incubation period with drugs, 5 μl CellTiter-Blue reagent (Promega Corp., Madison, Wis., USA) was added to each well. Cell viability was assessed by the ability of the remaining viable cells to bioreduce resazurin to resorufin. The fluorescence of resorufin (579 nm Ex/584 nm Em) was measured using a Synergy 4 microplate reader (Bio-Tek Instruments Inc.). […] IC50s were determined using a sigmoidal equilibrium model regression using XLfit version 5.2 (ID Business Solutions Ltd). The IC50 was defined as the concentration Of drug required for a 50% reduction in growth/viability. All experiments were carried out a minimum of three times.
For example, a cell line that is KRAS variant positive/BRCA wild-type (BG1), a non-variant/BRCA wild-type cell line (CAOV3) and a cell line KRAS-variant positive/BRCA1 mutant (IGR-OV1) were tested.

[2] = system: IGR-OV1 (KRAS-variant/BRCA1 mutant cell line); assay: CellTiter-Blue chemosensitivity / cell viability assay, IGR-OV1; conditions: KRAS variant and deleterious BRCA1 mutation line vs CAOV3
Procedure: as §1, with “three times. […]” for “three times.”

[3] = system: KRAS-variant 3′UTR reporter; assay: Luciferase reporter expression after irinotecan exposure, KRAS-variant 3′UTR reporter
Text: (§2) The disclosure provides a method of predicting the response of a cancer cell to the combination of a chemotherapy and monoclonal antibody therapy, including detecting a mutation in let-7 complementary site LCS6 of human KRAS in a patient sample, wherein the mutation is a SNP comprising a uracil (U) or thymine (T) to guanine (G) transition at position 4 of LCS6, and wherein the presence of the mutation indicates a resistance to the combination. In certain embodiments of this method, the cancer cell is a colorectal cancer (CRC) cell. The cancer cell may be evaluated in vitro or ex vivo. […] The chemotherapy may be a cytotoxic agent. A non-limiting example of the cytotoxic agent is irinotecan.

[4] = system: wild-type 3′UTR reporter (KRAS); assay: Luciferase reporter expression after irinotecan exposure, wild-type 3′UTR reporter
Text: as §2

Compound	resistance of BG1 compared with CAOV3 [1]	resistance of IGROV1 compared with CAOV3 [2]	reporter expression following irinotecan exposure [3]	reporter expression following irinotecan exposure [4]
COc1cccc2c1C(=O)c1c(O)c3c(c(O)c1C2=O)C[C@@](O)(C(=O)CO)C[C@@H]3O[C@H]1C[C@H](N)[C@H](O)[C@H](C)O1 [Doxorubicin, doxorubicin]	significantly resistant	–	–	–
Nc1ccn([C@@H]2O[C@H](CO)[C@@H](O)C2(F)F)c(=O)n1 [Gemcitabine, gemcitabine]	significantly resistant	–	–	–
CC[C@@]1(O)C(=O)OCc2c1cc1n(c2=O)Cc2cc3c(CN(C)C)c(O)ccc3nc2-1 [Topotecan, topotecan]	significantly resistant	–	–	–
N.N.O=C([O-])C1(C(=O)[O-])CCC1.[Pt+2] [carboplatin]	statistically significantly resistant	not resistant	–	–
CCc1c2c(nc3ccc(OC(=O)N4CCC(N5CCCCC5)CC4)cc13)-c1cc3c(c(=O)n1C2)COC(=O)[C@]3(O)CC [irinotecan]	–	–	statistically-significant increase	no change
